Assay results from a compilation of properties of binary mixtures (doi:10.1016/j.molliq.2018.02.064).

Test: xn = mol fraction of the nth substance listed
Conditions: 100 kPa, x2 = 0

CCO + CCCC[n+]1ccn(C)c1.O=S(=O)([N-]S(=O)(=O)C(F)(F)F)C(F)(F)F
Conditions | viscosity [mPa·s]
293 K | 1.19
293.3 K | 1.18
293.61 K | 1.18
293.91 K | 1.17
294.21 K | 1.17
294.52 K | 1.16
294.82 K | 1.16
295.12 K | 1.15
295.42 K | 1.15
296.03 K | 1.14
296.33 K | 1.13
296.64 K | 1.13
297.24 K | 1.12
298.45 K | 1.09
298.76 K | 1.09
299.06 K | 1.08
299.36 K | 1.08
299.67 K | 1.07
299.97 K | 1.07
300.27 K | 1.06
300.58 K | 1.06
300.88 K | 1.05
301.18 K | 1.05
301.79 K | 1.04
302.09 K | 1.03
302.39 K | 1.03
303 K | 1.02
303.61 K | 1.01
303.91 K | 1
304.52 K | 0.99
304.82 K | 0.99
305.12 K | 0.98
305.42 K | 0.98
305.73 K | 0.97
306.33 K | 0.96
306.64 K | 0.96
306.94 K | 0.95
307.24 K | 0.95
307.55 K | 0.94
307.85 K | 0.94
308.15 K | 0.93
308.45 K | 0.93
308.76 K | 0.92
309.06 K | 0.92
309.36 K | 0.91
309.97 K | 0.9
310.27 K | 0.9
310.88 K | 0.89
311.18 K | 0.88
311.48 K | 0.88
311.79 K | 0.87
312.09 K | 0.87
312.39 K | 0.86
313.91 K | 0.84
314.21 K | 0.84
314.52 K | 0.83
314.82 K | 0.83
315.12 K | 0.82
315.42 K | 0.82
315.73 K | 0.81
316.03 K | 0.81
316.64 K | 0.8
316.94 K | 0.8
317.24 K | 0.79
317.55 K | 0.79
317.85 K | 0.78
318.15 K | 0.78
318.76 K | 0.77
319.06 K | 0.77
319.97 K | 0.75
320.27 K | 0.75
320.58 K | 0.74
321.18 K | 0.73
321.79 K | 0.73
322.09 K | 0.72
322.39 K | 0.72
322.7 K | 0.71
323 K | 0.71
